Reference: patent publication US20200078363A1, “POST-SURGICAL PAIN TREATMENT” (Heron Therapeutics, Inc., priority 2018, published 2020)

System: post-surgical incisional (post-operative or POP) pain
Assay: Post-operative (POP) pain porcine model, von Frey test
Type: in vivo
Conditions: Group 1: IV aprepitant 6 mg/kg once prior to surgery and daily for 5 days after surgery, no other medication; 4 pigs
Excerpt: Example 1 describes three studies conducted to evaluate the capacity to reduce post-surgical incisional (post-operative or POP) pain in a porcine model system. Using a post-operative (POP) pain porcine model system, where a 7 cm long skin and fascia incision was made in the left flank under general anesthesia to pigs, NK-1 receptor antagonist alone or in combination with pain medication (i.e., bupivacaine and meloxicam) were applied to the wound. The skin incision was then closed using sterile sutures. Various methods were evaluated for their capacity to reduce post-surgical incisional (post-operative or POP) pain in a porcine model system. […] All studies described below evaluated 4 pigs per group. Post-operative pain was assessed using the von Frey methodology. […] By alternating the filament thickness, the gram force required to achieve withdrawal reaction was determined and recorded. […] Several studies evaluated emulsion compositions containing aprepitant (diluted 1:7) with saline, administered by intravenous infusion dosed at 6 mg/kg as a slow bolus via an IV catheter in the ear. […] Analgesia was evaluated by response in the von Frey test, as described above. […] By following similar procedures described in Example 1, the analgesic effect of a lower dose of aprepitant (i.e., lower than 6.0 mg/kg) was evaluated. […]

C[C@@H](O[C@H]1OCCN(Cc2n[nH]c(=O)[nH]2)[C@H]1c1ccc(F)cc1)c1cc(C(F)(F)F)cc(C(F)(F)F)c1 [aprepitant]
analgesia, von Frey response (withdrawal force): little analgesic response
